Assays:
[1] = test system: chemoprotective/stress-related genes (GST-PI, GST-Mu2, GST-Ya, GST) in rat pup skin; assay: Rat stress gene cDNA expression array on skin samples of treated rat pups; format: in vivo; conditions: topical 15 mM for 5 days; compared to rat pups treated with cytoxan
Experimental: In brief, rat pups were treated with either CTX or B-NF and at different time intervals skin samples were collected and total RNA was extracted from them. The RNA was reverse transcribed to form the respective cDNAs in the presence of ^32P dATP using primers specific for stress-related genes. The radiolabeled cDNA synthesized was used to probe a rat stress gene cDNA expression array consisting of 207 stress-related genes (Clontech) according to the manufacturer's protocol. The hybridized membrane was exposed to a phosphorimager screen and the image obtained was aligned with an orientation grid to identify the genes that are expressed. Images from control, CTX, treated and B-NF-treated animals were compared to determine the changes, if any, in the expression pattern of chemoprotective genes under these experimental conditions.

[2] = test system: CTX induced alopecia in 7 day old rat pups; assay: Prevention of cytoxan (CTX)-induced alopecia by topical chemoprotective inducers in rat pups; format: in vivo, Sprague Dawley rats; conditions: for alopecia when delivered in minoxidil vehicle (propylene glycol:ethanol:water): minoxidil carrier, compared with CTX-treated pups without inducer; for protective effect against CTX-induced hair loss (hair density): topical in nonionic liposomes day -2 to day 6, CTX i.p. day 0, scored day 7, 100% = untreated control pups
[3] = test system: 7 day old rat pups (hair loss); conditions: 40 μg/gm CTX i.p., 7 day old pups, examined seven days after
Experimental: Lactating Sprague Dawley rats with 12 pups per mother were purchased from Harlan Sprague Dawley. To produce CTX induced alopecia, several concentrations (35, 40 45 μg/gm body weight) of CTX in water were injected i.p. in to 7 day old pups. Seven days after CTX treatment the pups were examined to determine the degree of hair loss. The pups were gently brushed on the back to remove the loose hair sticking onto the skin and photographed. The density of hair on the pups was then determined.

SMILES	protective effect against CTX-induced hair loss (hair density) [2]	further results
O=c1cc(-c2ccccc2)oc2ccc3ccccc3c12 [B-NF, β-naphthoflavone]	80%	expression level of GST-PI, GST-Mu2, GST-Ya and GST (rat homolog of human) in skin [1]: significant increase; protective effect when applied only on the day before cytoxan ([2]; applied only on the day before cytoxan): substantial protective effect; alopecia when delivered in minoxidil vehicle (propylene glycol:ethanol:water) [2]: as severe as the untreated CTX-treated rat pups; alopecia when delivered in minoxidil vehicle (propylene glycol:ethanol:water) ([2]; listed as BNF): hair loss equivalent to that observed in cytoxan-treated animals not pre-treated
COc1ccc(O)c(C(C)(C)C)c1 [BHA]	60%	
O=P1(N(CCCl)CCCl)NCCCO1 (stereo not shown) [CTX]		hair loss induced [3]: 100%
Cc1c(-c2cnccn2)ssc1=S [Oltipraz]	50%	
C[S+]([O-])CCCCN=C=S (stereo not shown) [sulphoraphane]	5%	
CC(C)(C)c1cc(O)ccc1O [tBHQ, tert-butylhydroquinone]	10%	

Source: patent US9839638B2, “Compositions and methods for protecting cells during cancer chemotherapy and radiotherapy” (Wisconsin Alumni Research Foundation, priority 2000, dated 2017)
